{"source": "ChEMBL document CHEMBL6134904", "about": "“Discovery of Potent PDEδ/NAMPT Dual Inhibitors: Preclinical Evaluation in KRAS Mutant Pancreatic Cancer Cells” (J Med Chem, 2025)", "key": {"MIA PaCa-2 [1]": {"system": "MIA PaCa-2", "assay": "Synergistic antiproliferative activity against human MIA PaCa-2 cells harboring KRAS G12C mutant assessed as inhibition of cell growth by measuring combination index at 1:2 molar ratio of test compound:1-(4-(piperidin-1-ylsulfonyl)phenyl)-3-(pyridin-3-ylmethyl)thiourea by chou-talalay method", "format": "functional"}, "MIA PaCa-2 [2]": {"system": "MIA PaCa-2", "assay": "Antiproliferative activity against human MIA PaCa-2 cells assessed as inhibition of cell growth incubated for 72 hrs in presence of 1-(4-(piperidin-1-ylsulfonyl)phenyl)-3-(pyridin-3-ylmethyl)thiourea by CCK8 assay", "format": "functional, cell-based", "conditions": "MIA PaCa-2, 72 h"}, "HCT-116 [3]": {"system": "HCT-116", "assay": "Antiproliferative activity against human HCT-116 cells assessed as inhibition of cell growth incubated for 72 hrs in presence of 1-(4-(piperidin-1-ylsulfonyl)phenyl)-3-(pyridin-3-ylmethyl)thiourea by CCK8 assay", "format": "functional, cell-based", "conditions": "HCT-116, 72 h"}, "A549 [4]": {"system": "A549", "assay": "Antiproliferative activity against human A549 cells assessed as inhibition of cell growth incubated for 72 hrs in presence of 1-(4-(piperidin-1-ylsulfonyl)phenyl)-3-(pyridin-3-ylmethyl)thiourea by CCK8 assay", "format": "functional, cell-based", "conditions": "A549, 72 h"}, "MIA PaCa-2 [5]": {"system": "MIA PaCa-2", "assay": "Antitumor activity against human MIA PaCa-2 cells xenografted in female BALB/C nude mouse assessed as tumor growth inhibition at 20 mg/kg, ip administered once daily for 21 days relative to control", "conditions": "MIA PaCa-2, 504 h, read-out: TGI"}, "MIA PaCa-2 [6]": {"system": "MIA PaCa-2", "assay": "Antitumor activity against human MIA PaCa-2 cells xenografted in female BALB/C nude mouse assessed as tumor growth inhibition at 20 mg/kg, ip co-administered with 1-(4-(piperidin-1-ylsulfonyl)phenyl)-3-(pyridin-3-ylmethyl)thiourea once daily for 21 days relative to control", "format": "functional", "conditions": "MIA PaCa-2, 504 h, time 21 day, read-out: TGI"}, "[7]": {"molecular_target": "Retinal rod rhodopsin-sensitive cGMP 3',5'-cyclic phosphodiesterase subunit delta (Homo sapiens, UniProt O43924)", "sequence (O43924 whole entry)": "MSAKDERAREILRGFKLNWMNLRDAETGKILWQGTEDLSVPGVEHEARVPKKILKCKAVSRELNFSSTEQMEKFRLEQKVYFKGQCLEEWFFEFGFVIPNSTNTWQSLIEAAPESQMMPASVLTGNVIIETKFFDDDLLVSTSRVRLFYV"}, "MIA PaCa-2 [8]": {"system": "MIA PaCa-2", "assay": "cells", "conditions": "Homo sapiens, MIA PaCa-2, 72 h", "description": "Antiproliferative activity against human MIA PaCa-2 cells assessed as inhibition of cell growth incubated for 72 hrs by CCK8 assay"}, "HCT-116 [9]": {"system": "HCT-116", "assay": "cells", "conditions": "Homo sapiens, HCT-116, 72 h", "description": "Antiproliferative activity against human HCT-116 cells assessed as inhibition of cell growth incubated for 72 hrs by CCK8 assay"}, "A549 [10]": {"system": "A549", "assay": "cells", "conditions": "Homo sapiens, A549, 72 h", "description": "Antiproliferative activity against human A549 cells assessed as inhibition of cell growth incubated for 72 hrs by CCK8 assay"}, "[11]": {"molecular_target": "Nicotinamide phosphoribosyltransferase (Homo sapiens, UniProt P43490)", "sequence (P43490 whole entry)": "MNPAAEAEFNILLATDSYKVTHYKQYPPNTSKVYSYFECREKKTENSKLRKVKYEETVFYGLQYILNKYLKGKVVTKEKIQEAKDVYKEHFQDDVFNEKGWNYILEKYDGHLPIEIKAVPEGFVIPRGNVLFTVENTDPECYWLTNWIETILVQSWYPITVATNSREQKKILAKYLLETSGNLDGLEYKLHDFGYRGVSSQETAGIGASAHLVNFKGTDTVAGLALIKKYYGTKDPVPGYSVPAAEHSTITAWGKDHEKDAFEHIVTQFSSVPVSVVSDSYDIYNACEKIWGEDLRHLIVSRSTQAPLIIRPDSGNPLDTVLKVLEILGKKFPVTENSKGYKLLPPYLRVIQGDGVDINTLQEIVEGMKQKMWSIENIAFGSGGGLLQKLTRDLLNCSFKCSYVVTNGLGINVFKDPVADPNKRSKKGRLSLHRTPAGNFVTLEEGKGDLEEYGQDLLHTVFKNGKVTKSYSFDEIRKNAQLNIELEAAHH", "description": "Inhibition of NAMPT (unknown origin) using NAM as substrate preincubated for 5 mins followed by substrate addition and measured after 15 mins by fluorescence based microtiter plate reader analysis"}}, "data": [{"compound": "Cc1ccc(-n2nc3c(=O)n(CCC(=O)N4CCC(N5C(=O)c6ccccc6NC5c5ccccc5F)CC4)nc(C)c3c2C)cc1", "note": "(centres undefined)", "values": [{"measurement": "CI", "setting": "MIA PaCa-2 [1]", "result": "<1"}, {"measurement": "IC50", "setting": "MIA PaCa-2 [2]", "result": 130, "unit": "nM"}, {"measurement": "IC50", "setting": "HCT-116 [3]", "result": 233, "unit": "nM"}, {"measurement": "IC50", "setting": "A549 [4]", "result": 39, "unit": "nM"}, {"measurement": "inhibition in vivo at 20 mg/kg", "setting": "MIA PaCa-2 [5]", "result": 26.8, "unit": "%"}, {"measurement": "inhibition in vivo at 20 mg/kg", "setting": "MIA PaCa-2 [6]", "result": 44.1, "unit": "%"}, {"measurement": "Kd", "setting": "[7]", "result": 5.16, "unit": "nM"}, {"measurement": "IC50", "setting": "MIA PaCa-2 [8]", "result": "> 20000", "unit": "nM"}, {"measurement": "IC50", "setting": "HCT-116 [9]", "result": 6870, "unit": "nM"}, {"measurement": "IC50", "setting": "A549 [10]", "result": "> 20000", "unit": "nM"}]}, {"compound": "O=C(/C=C/c1cccnc1)Nc1ccc(S(=O)(=O)N(Cc2ccc(Cl)cc2)C2CCCC2)cc1", "values": [{"measurement": "IC50", "setting": "[11]", "result": 266, "unit": "nM"}, {"measurement": "IC50", "setting": "MIA PaCa-2 [8]", "result": 36, "unit": "nM"}, {"measurement": "IC50", "setting": "HCT-116 [9]", "result": 711, "unit": "nM"}, {"measurement": "IC50", "setting": "A549 [10]", "result": 14, "unit": "nM"}]}]}
